This is an account of results in patent publication US10577365B2, “Derivatives of quinoline as inhibitors of DYRK1A and/or DYRK1B kinases” (Felicitex Therapeutics, Inc., priority 2016, dated 2020).

In one assay the target is T1, DYRK1B (Homo sapiens, UniProt Q9Y463).
T1 construct: purchased Carna Bioscence (Carna Biosciences) 04-131
The experiment in a line: DYRK1B in vitro kinase assay (ADP-Glo). It is filed as biochemical. As to the method: The compounds of the present invention were tested for their inhibitory activity against DYRK1A and DYRK1B kinases once or several times. When tested more than once, the data are reported herein as average value, wherein the average value, also referred to as the mean value, represents the sum of obtained values divided by the number of times tested. DYRK-inhibitory activity of the compounds of the present invention was tested using the ADP-Glo™ assay as described in the following paragraphs. The procedure for determining the IC50 values with the ADP-Glo™ assay in in vitro kinase assays consists of two parts: […] Kinase reaction performed under optimized conditions; 2. Detection of ADP as a product of the reaction using ADP-Glo™ system (Promega). The tested compounds indicated in Table 5 below were dissolved in DMSO, then transferred to the V-bottom PP plate to perform nine serial dilutions (in order to obtain dose-response curves) in 25% DMSO, as indicated in Table 5 below. The optimized conditions for performing DYRK1B in vitro kinase assay were as follows: [table] For compound testing, the following protocol was used: two mixes were prepared on ice, Mix 1 containing substrate, ATP and reaction buffer and Mix 2 containing reaction buffer and the kinase. 15 μL per well of Mix 1 was transferred to wells of a 96-well plate. […] Total reaction volume was 30 μL per well. The experiment was performed in duplicate for each data point being examined. Dose response curve for the positive control was carried out on each assay plate by adding the reference inhibitory compound staurosporine. For each test, three controls were also included: (i) 30 μL of the reaction mixture containing: reaction buffer, ATP, kinase, DMSO without substrate (quasi-positive control); (ii) 30 μL of the reaction mixture containing reaction buffer, substrate, ATP, DMSO without kinase (background control); (iii) 30 μL of the reaction mixture containing reaction buffer, substrate, kinase, ATP, DMSO (vehicle control). Final concentration of DMSO in the reaction was 2%. To detect the ADP amount produced during the kinase reaction, the commercially available kit ADP-Glo™ Kinase Assay (Promega, cat. No # V9103) was used. The protocol used for the detection was based on the Technical Bulletin of the ADP-Glo™ Kinase Assay (Promega) and was adapted to 96-well plate containing 30 μL reaction mixture as explained below. 30 μL of ADP-Glo™ Reagent was added to each well of a 96 well plate containing 30 μL of reaction mixture to terminate the kinase reaction and deplete the remaining ATP. The plate was incubated for 60 minutes on a shaker at rt. 60 μL of Kinase Detection Solution was then added to each well of 96-well plate containing 60 μL of the solution to convert ADP to ATP and to allow the newly synthesized ATP to be measured using a luciferase/luciferin reaction (ratio of kinase reaction volume to ADP Glo™ Reagent volume to Kinase Detection Solution volume was maintained at 1:1:2). The plate was incubated for 40 minutes on a shaker at rt, protected from light. Luminescence was measured in the plate reader, wherein the luminescent signal is proportional to the ADP concentration produced and thus correlates with kinase activity. After data normalization to controls (complete reaction mix and no-substrate control) and transforming X values (test compound concentrations) using: X=log(X), IC50 values were determined, using the GraphPad Prism 6.0 [log(agonist) vs. normalized response—Variable slope].

A further assay concerns the target T2, DYRK1A (Homo sapiens, UniProt Q13627).
T2 construct: purchased Carna Bioscence (Carna Biosciences) 04-130
Put plainly: DYRK1A in vitro kinase assay (ADP-Glo). The format is biochemical. The note with it: ATP 70 μM (Km), substrate 3 μM, enzyme 2 nM or 0.7 nM, 30 min, rt. As for the experimental part: The compounds of the present invention were tested for their inhibitory activity against DYRK1A and DYRK1B kinases once or several times. When tested more than once, the data are reported herein as average value, wherein the average value, also referred to as the mean value, represents the sum of obtained values divided by the number of times tested.
DYRK-inhibitory activity of the compounds of the present invention was tested using the ADP-Glo™ assay as described in the following paragraphs. The procedure for determining the IC50 values with the ADP-Glo™ assay in in vitro kinase assays consists of two parts:
1. Kinase reaction performed under optimized conditions;
2. Detection of ADP as a product of the reaction using ADP-Glo™ system (Promega).
The tested compounds indicated in Table 5 below were dissolved in DMSO, then transferred to the V-bottom PP plate to perform nine serial dilutions (in order to obtain dose-response curves) in 25% DMSO, as indicated in Table 5 below.
The optimized conditions for performing DYRK1A in vitro kinase assay were as follows:
For compound testing, the following protocol was used: two mixes were prepared on ice, Mix 1 containing substrate, ATP and reaction buffer and Mix 2 containing reaction buffer and the kinase. 15 μL per well of Mix 1 was transferred to wells of a 96-well plate. Next, 2.5 μL of the pre-diluted compound to be tested was added to Mix 1, followed by the addition of 12.5 μL of Mix 2. Total reaction volume was 30 μL per well. The experiment was performed in duplicate for each data point being examined. Dose response curve for the positive control was carried out on each assay plate by adding the reference inhibitory compound staurosporine. For each test, three controls were also included: (i) 30 μL of the reaction mixture containing: reaction buffer, ATP, kinase, DMSO without substrate (quasi-positive control); (ii) 30 μL of the reaction mixture containing reaction buffer, substrate, ATP, DMSO without kinase (background control); (iii) 30 μL of the reaction mixture containing reaction buffer, substrate, kinase, ATP, DMSO (vehicle control). Final concentration of DMSO in the reaction was 2%. To detect the ADP amount produced during the kinase reaction, the commercially available kit ADP-Glo™ Kinase Assay (Promega, cat. No # V9103) was used. The protocol used for the detection was based on the Technical Bulletin of the ADP-Glo™ Kinase Assay (Promega) and was adapted to 96-well plate containing 30 μL reaction mixture as explained below.
30 μL of ADP-Glo™ Reagent was added to each well of a 96 well plate containing 30 μL of reaction mixture to terminate the kinase reaction and deplete the remaining ATP. The plate was incubated for 60 minutes on a shaker at rt. 60 μL of Kinase Detection Solution was then added to each well of 96-well plate containing 60 μL of the solution to convert ADP to ATP and to allow the newly synthesized ATP to be measured using a luciferase/luciferin reaction (ratio of kinase reaction volume to ADP Glo™ Reagent volume to Kinase Detection Solution volume was maintained at 1:1:2). The plate was incubated for 40 minutes on a shaker at rt, protected from light. Luminescence was measured in the plate reader, wherein the luminescent signal is proportional to the ADP concentration produced and thus correlates with kinase activity.
After data normalization to controls (complete reaction mix and no-substrate control) and transforming X values (test compound concentrations) using: X=log(X), IC50 values were determined, using the GraphPad Prism 6.0 [log(agonist) vs. normalized response—Variable slope].
For orientation: In ADP-Glo the light output rises with the ADP produced.

The mark [1] stands for this setting: ADP-Glo assay, ATP 15 μM (Km), substrate 7 μM, enzyme 1 nM or 0.3 nM, 1 h, rt, read-out: DYRK1B IC50.

Structures can show the parent of a compound that is named as a salt. Where two headings read alike, the source gives them in different places.

T1 sequence (Q9Y463 whole entry): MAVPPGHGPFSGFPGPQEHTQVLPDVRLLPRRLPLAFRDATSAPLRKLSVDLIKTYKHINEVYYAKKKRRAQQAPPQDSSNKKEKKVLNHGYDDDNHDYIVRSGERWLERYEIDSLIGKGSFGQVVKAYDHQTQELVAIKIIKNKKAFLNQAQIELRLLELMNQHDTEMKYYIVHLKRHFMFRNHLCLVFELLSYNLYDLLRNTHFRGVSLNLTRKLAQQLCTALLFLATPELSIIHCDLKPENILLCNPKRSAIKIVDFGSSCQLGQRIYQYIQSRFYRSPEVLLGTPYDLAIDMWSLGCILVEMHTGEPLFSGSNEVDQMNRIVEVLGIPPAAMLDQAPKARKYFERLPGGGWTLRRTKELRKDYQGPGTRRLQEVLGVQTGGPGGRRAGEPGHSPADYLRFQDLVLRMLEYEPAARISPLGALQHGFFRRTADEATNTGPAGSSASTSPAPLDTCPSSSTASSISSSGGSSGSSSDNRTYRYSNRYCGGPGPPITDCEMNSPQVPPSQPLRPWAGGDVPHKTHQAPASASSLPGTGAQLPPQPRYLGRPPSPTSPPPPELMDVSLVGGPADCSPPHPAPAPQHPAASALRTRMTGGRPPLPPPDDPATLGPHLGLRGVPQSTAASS

A word on the IC50: it is the concentration needed to halve the response being measured. `O=C(NCc1cccnc1)c1cnc2[nH]cc(-c3cc(F)c4nccc(-c5cccnc5)c4c3)c2c1` [Example 47, 3-[8-Fluoro-4-(pyridin-3-yl)quinolin-6-yl]-N-(pyridin-3-ylmethyl)-1H-pyrrolo[2,3-b]pyridine-5-carboxamide]: the IC50 at DYRK1B (setting [1]) and against DYRK1A was under 10 nM in each case.

Turning to `CNC(=O)c1cnc2[nH]cc(-c3cc(OC)c4ncccc4c3)c2c1` [Example 29, 3-(8-Methoxyquinolin-6-yl)-N-methyl-1H-pyrrolo[2,3-b]pyridine-5-carboxamide], on DYRK1B (setting [1]), the IC50 fell in the range of 10 to 100 nM.

Consider `CNC(=O)c1cnc2[nH]cc(-c3ccc4nccc(N5CCOCC5)c4c3)c2c1` [Example 23, N-Methyl-3-[4-(morpholin-4-yl)quinolin-6-yl]-1H-pyrrolo[2,3-b]pyridine-5-carboxamide], for which the IC50 on DYRK1B (setting [1]) and at DYRK1A was under 10 nM in each case.

In turn, `Cc1cc(-c2c[nH]c3ncccc23)cc2cccnc12` [Example 12, 8-Methyl-6-{1H-pyrrolo[2,3-b]pyridin-3-yl}quinoline hydrochloride] gave an IC50 on DYRK1B of 10 to 100 nM.

For the compound `COc1cc(-c2c[nH]c3ncc(C(N)=O)cc23)cc2c(-c3cccnc3)ccnc12` [Example 45, 3-[8-Methoxy-4-(pyridin-3-yl)quinolin-6-yl]-1H-pyrrolo[2,3-b]pyridine-5-carboxamide], the IC50 at DYRK1B (setting [1]) is 10 to 100 nM; against DYRK1A, over 100 nM.

Take `N[C@@H]1CCCN(c2ccnc3c(F)cc(-c4c[nH]c5ncc(C(=O)NCc6cccnc6)cc45)cc23)C1` [Example 48, 3-{4-[(3R)-3-Aminopiperidin-1-yl]-8-fluoroquinolin-6-yl}-N-(pyridin-3-ylmethyl)-1H-pyrrolo[2,3-b]pyridine-5-carboxamide hydrochloride]: the IC50 at DYRK1B (setting [1]) and on DYRK1A was under 10 nM in each case.

Consider `Fc1cc(-c2c[nH]c3ncccc23)cc2cccnc12` [Example 13, 8-Fluoro-6-{1H-pyrrolo[2,3-b]pyridin-3-yl}quinoline], for which the half-inhibitory concentration (IC50) at DYRK1B (setting [1]) and on DYRK1A was under 10 nM throughout.

In the case of `NCCCNC(=O)c1cnc2[nH]cc(-c3cc(F)c4nccc(-c5cccnc5)c4c3)c2c1` [Example 37, N-(3-Aminopropyl)-3-[8-fluoro-4-(pyridin-3-yl)quinolin-6-yl]-1H-pyrrolo[2,3-b]pyridine-5-carboxamide hydrochloride], the IC50 on DYRK1B (setting [1]) and against DYRK1A was under 10 nM throughout.

In the case of `N[C@H]1CC[C@H](Nc2c([N+](=O)[O-])cnc3ccc(-c4c[nH]c5ncc(C(=O)NCc6cccnc6)cc45)cc23)CC1` [Example 59, 3-{4-[(4-Aminocyclohexyl)amino]-3-nitroquinolin-6-yl}-N-(pyridin-3-ylmethyl)-1H-pyrrolo[2,3-b]pyridine-5-carboxamide hydrochloride], the IC50 on DYRK1B (setting [1]) and against DYRK1A was 10 to 100 nM in each case.

In the case of `CN1CCC(Nc2ccnc3ccc(-c4c[nH]c5ncccc45)cc23)CC1` [Example 10, N-(1-Methylpiperidin-4-yl)-6-{1H-pyrrolo[2,3-b]pyridin-3-yl}quinolin-4-amine], the half-maximal inhibitory concentration (IC50) at DYRK1B (setting [1]) lay in the range of 10 to 100 nM.

Consider `Clc1cc(-c2c[nH]c3ncccc23)cc2cccnc12` [Example 11, 8-Chloro-6-{1H-pyrrolo[2,3-b]pyridin-3-yl}quinoline hydrochloride], for which the IC50 on DYRK1B (setting [1]) and against DYRK1A was under 10 nM throughout.

As to `NCCCNC(=O)c1cnc2[nH]cc(-c3cc(Cl)c4ncccc4c3)c2c1` [Example 34, N-(3-Aminopropyl)-3-(8-chloroquinolin-6-yl)-1H-pyrrolo[2,3-b]pyridine-5-carboxamide hydrochloride], the IC50 at DYRK1B (setting [1]) and at DYRK1A was under 10 nM in each case.

For the compound `O=C(NCc1ccccc1)c1cnc2[nH]cc(-c3cc(F)c4ncccc4c3)c2c1` [Example 31, N-Benzyl-3-(8-fluoroquinolin-6-yl)-1H-pyrrolo[2,3-b]pyridine-5-carboxamide], the IC50 on DYRK1B (setting [1]) and on DYRK1A was under 10 nM throughout.

On to `CN1CCC(Nc2c(C#N)cnc3ccc(-c4c[nH]c5ncccc45)cc23)CC1` [Example 64, 4-[(1-Methylpiperidin-4-yl)amino]-6-{1H-pyrrolo[2,3-b]pyridin-3-yl}quinoline-3-carbonitrile], for which the IC50 on DYRK1B (setting [1]) lay within 10 to 100 nM.

The compound `Clc1ccnc2ccc(-c3c[nH]c4ncccc34)cc12` [Example 1, 4-Chloro-6-{1H-pyrrolo[2,3-b]pyridin-3-yl}quinoline] returned an IC50 against DYRK1A of 10 to 100 nM.

`N[C@H]1CCN(c2ccnc3ccc(-c4c[nH]c5ncccc45)cc23)C1` [Example 5, (3S)-1-(6-{1H-Pyrrolo[2,3-b]pyridin-3-yl}quinolin-4-yl)pyrrolidin-3-amine] yielded an IC50 at DYRK1A of under 10 nM.

`N[C@H]1CC[C@H](Nc2ccnc3ccc(-c4c[nH]c5ncccc45)cc23)CC1` [Example 4, trans-1-N-(6-{1H-Pyrrolo[2,3-b]pyridin-3-yl}quinolin-4-yl)cyclohexane-1,4-diamine]: the IC50 against DYRK1A was over 100 nM.

As for `Cc1cc(-c2c[nH]c3ncccc23)cc2c(-c3cccnc3)ccnc12` [Example 18, 8-Methyl-4-(pyridin-3-yl)-6-{1H-pyrrolo[2,3-b]pyridin-3-yl}quinoline], the IC50 on DYRK1B (setting [1]) is 10 to 100 nM.

As for `COc1cc(-c2c[nH]c3ncccc23)cc2cccnc12` [Example 15, 8-Methoxy-6-{1H-pyrrolo[2,3-b]pyridin-3-yl}quinoline], the IC50 at DYRK1B (setting [1]) lay within 10 to 100 nM.

In the case of `CNC(=O)c1cnc2[nH]cc(-c3cc(C)c4nccc(-c5cccnc5)c4c3)c2c1` [Example 42, N-Methyl-3-[8-methyl-4-(pyridin-3-yl)quinolin-6-yl]-1H-pyrrolo[2,3-b]pyridine-5-carboxamide], the half-inhibitory concentration (IC50) on DYRK1B (setting [1]) was 10 to 100 nM.
